# Values quoted from earlier work, collected in patent publication US11504387B2, “Bioconversion of oleuropein” (SOCIETE DES PRODUITS NESTLE S.A., priority 2017, dated 2022).
# Experiments:
# [1] = compared with hydroxytyrosol
# [2] = upper gastrointestinal tract and small intestine
# [3] = compared to caffeic acid, oleuropein and hydroxytyrosol
# [4] = in vivo
compound,measurement,setting,value
hydroxytyrosol acetate,solubility in the lipophilic phases,[1],more soluble in the lipophilic phases than hydroxytyrosol
C/C=C1/[C@H](O[C@@H]2O[C@H](CO)[C@@H](O)[C@H](O)[C@H]2O)OC=C(C(=O)OC)[C@H]1CC(=O)OCCc1ccc(O)c(O)c1 [oleuropein],resistance to degradation,[2],resists degradation in the upper gastrointestinal tract and the small intestine
"CC=C1C(O)OC=C(C(=O)OC)C1CC(=O)OCCc1ccc(O)c(O)c1 (stereo not shown) [oleuropein aglycone, 3,4-dihydroxyphenylethanol-elenolic acid]",antioxidant activity,[3],"comparable to that of caffeic acid, oleuropein and hydroxytyrosol"
same,clearance from the plasma,[4],slower clearance from the plasma compared with hydroxytyrosol and oleuropein
